Test system: OVCAR-3
Assay: Antiproliferative activity against human OVCAR3 cells after 24 hrs by MTT assay
Format: functional, cell-based
Conditions: OVCAR-3, 24 h

Row | IC50 [µM] | Compound
1 | 15.1 | O=C(NNC(=O)c1ccccc1NS(=O)(=O)c1cnc(O)nc1O)c1ccc(F)cc1
2 | 9.57 | O=C(NNc1ccccc1F)c1ccccc1NS(=O)(=O)c1cnc(O)nc1O
3 | > 20 | O=C(NNc1ccc(F)cc1)c1ccc(NS(=O)(=O)c2cnc(O)nc2O)cc1
4 | > 20 | Cc1ccccc1C(=O)NNC(=O)c1cccc(NS(=O)(=O)c2cnc(O)nc2O)c1
5 | > 20 | Cc1ccccc1NNC(=O)c1ccccc1NS(=O)(=O)c1cnc(O)nc1O
6 | 13.5 | O=C(NNC(=O)c1cccc(NS(=O)(=O)c2cnc(O)nc2O)c1)c1cccc(Cl)c1
7 | 8.04 | O=C(NNc1cccc(Cl)c1)c1cccc(NS(=O)(=O)c2cnc(O)nc2O)c1
8 | 16 | O=C(NNC(=O)c1ccccc1F)c1ccc(NS(=O)(=O)c2cnc(O)nc2O)cc1
9 | 15.3 | O=C(NNC(=O)c1ccccc1NS(=O)(=O)c1cnc(O)nc1O)c1ccccc1F
10 | 18.2 | O=C(NNC(=O)c1ccccc1NS(=O)(=O)c1cnc(O)nc1O)c1ccccc1Cl
11 | 12.8 | CCCCOc1ccc(C(=O)NNC(=O)c2ccc(NS(=O)(=O)c3cnc(O)nc3O)cc2)cc1
12 | 8.41 | O=C(NNc1cccc(Cl)c1)c1ccc(NS(=O)(=O)c2cnc(O)nc2O)cc1
13 | > 20 | Cc1ccc(C(=O)NNC(=O)c2cccc(NS(=O)(=O)c3cnc(O)nc3O)c2)cc1
14 | > 20 | Cc1ccccc1C(=O)NNC(=O)c1ccccc1NS(=O)(=O)c1cnc(O)nc1O
15 | 3.35 | O=C(NNc1ccccc1Cl)c1cccc(NS(=O)(=O)c2cnc(O)nc2O)c1
16 | > 20 | Cc1ccccc1NNC(=O)c1ccc(NS(=O)(=O)c2cnc(O)nc2O)cc1
17 | > 20 | Cc1cccc(NNC(=O)c2cccc(NS(=O)(=O)c3cnc(O)nc3O)c2)c1
18 | 7.3 | O=C(NNC(=O)c1ccccc1Cl)c1cccc(NS(=O)(=O)c2cnc(O)nc2O)c1
19 | > 20 | O=C(NNc1ccc(F)cc1)c1cccc(NS(=O)(=O)c2cnc(O)nc2O)c1
20 | > 20 | Cc1ccccc1NNC(=O)c1cccc(NS(=O)(=O)c2cnc(O)nc2O)c1

Test system: SGC-7901
Assay: Antiproliferative activity against human SGC7901 cells after 24 hrs by MTT assay
Format: functional, cell-based
Conditions: SGC-7901, 24 h

Row | IC50 [µM] | Compound
21 | > 20 | O=C(NNC(=O)c1ccccc1NS(=O)(=O)c1cnc(O)nc1O)c1ccc(F)cc1
22 | > 20 | O=C(NNc1ccccc1F)c1ccccc1NS(=O)(=O)c1cnc(O)nc1O
23 | > 20 | O=C(NNc1ccc(F)cc1)c1ccc(NS(=O)(=O)c2cnc(O)nc2O)cc1
24 | > 20 | Cc1ccccc1C(=O)NNC(=O)c1cccc(NS(=O)(=O)c2cnc(O)nc2O)c1
25 | > 20 | Cc1ccccc1NNC(=O)c1ccccc1NS(=O)(=O)c1cnc(O)nc1O
26 | 7.31 | O=C(NNC(=O)c1cccc(NS(=O)(=O)c2cnc(O)nc2O)c1)c1cccc(Cl)c1
27 | 11.8 | O=C(NNc1cccc(Cl)c1)c1cccc(NS(=O)(=O)c2cnc(O)nc2O)c1
28 | > 20 | O=C(NNC(=O)c1ccccc1F)c1ccc(NS(=O)(=O)c2cnc(O)nc2O)cc1
29 | > 20 | O=C(NNC(=O)c1ccccc1NS(=O)(=O)c1cnc(O)nc1O)c1ccccc1F
30 | 2.41 | O=C(NNC(=O)c1ccccc1NS(=O)(=O)c1cnc(O)nc1O)c1ccccc1Cl
31 | 14.7 | CCCCOc1ccc(C(=O)NNC(=O)c2ccc(NS(=O)(=O)c3cnc(O)nc3O)cc2)cc1
32 | 11.6 | O=C(NNc1cccc(Cl)c1)c1ccc(NS(=O)(=O)c2cnc(O)nc2O)cc1
33 | 10.1 | Cc1ccc(C(=O)NNC(=O)c2cccc(NS(=O)(=O)c3cnc(O)nc3O)c2)cc1
34 | 13 | Cc1ccccc1C(=O)NNC(=O)c1ccccc1NS(=O)(=O)c1cnc(O)nc1O
35 | 2.27 | O=C(NNc1ccccc1Cl)c1cccc(NS(=O)(=O)c2cnc(O)nc2O)c1
36 | > 20 | Cc1ccccc1NNC(=O)c1ccc(NS(=O)(=O)c2cnc(O)nc2O)cc1
37 | > 20 | Cc1cccc(NNC(=O)c2cccc(NS(=O)(=O)c3cnc(O)nc3O)c2)c1
38 | 6.07 | O=C(NNC(=O)c1ccccc1Cl)c1cccc(NS(=O)(=O)c2cnc(O)nc2O)c1
39 | > 20 | O=C(NNc1ccc(F)cc1)c1cccc(NS(=O)(=O)c2cnc(O)nc2O)c1
40 | > 20 | Cc1ccccc1NNC(=O)c1cccc(NS(=O)(=O)c2cnc(O)nc2O)c1

Test system: A549
Assay: Antiproliferative activity against human A549 cells after 24 hrs by MTT assay
Format: functional, cell-based
Conditions: A549, 24 h

Row | IC50 [µM] | Compound
41 | > 20 | O=C(NNC(=O)c1ccccc1NS(=O)(=O)c1cnc(O)nc1O)c1ccc(F)cc1
42 | 9.61 | O=C(NNc1ccccc1F)c1ccccc1NS(=O)(=O)c1cnc(O)nc1O
43 | > 20 | O=C(NNc1ccc(F)cc1)c1ccc(NS(=O)(=O)c2cnc(O)nc2O)cc1
44 | 8.01 | Cc1ccccc1C(=O)NNC(=O)c1cccc(NS(=O)(=O)c2cnc(O)nc2O)c1
45 | > 20 | Cc1ccccc1NNC(=O)c1ccccc1NS(=O)(=O)c1cnc(O)nc1O
46 | 6 | O=C(NNC(=O)c1cccc(NS(=O)(=O)c2cnc(O)nc2O)c1)c1cccc(Cl)c1
47 | 6.64 | O=C(NNc1cccc(Cl)c1)c1cccc(NS(=O)(=O)c2cnc(O)nc2O)c1
48 | 7.61 | O=C(NNC(=O)c1ccccc1F)c1ccc(NS(=O)(=O)c2cnc(O)nc2O)cc1
49 | 7.15 | O=C(NNC(=O)c1ccccc1NS(=O)(=O)c1cnc(O)nc1O)c1ccccc1F
50 | 5.29 | O=C(NNC(=O)c1ccccc1NS(=O)(=O)c1cnc(O)nc1O)c1ccccc1Cl
51 | 9.01 | CCCCOc1ccc(C(=O)NNC(=O)c2ccc(NS(=O)(=O)c3cnc(O)nc3O)cc2)cc1
52 | 7.29 | O=C(NNc1cccc(Cl)c1)c1ccc(NS(=O)(=O)c2cnc(O)nc2O)cc1
53 | > 20 | Cc1ccc(C(=O)NNC(=O)c2cccc(NS(=O)(=O)c3cnc(O)nc3O)c2)cc1
54 | 5.45 | Cc1ccccc1C(=O)NNC(=O)c1ccccc1NS(=O)(=O)c1cnc(O)nc1O
55 | 1.46 | O=C(NNc1ccccc1Cl)c1cccc(NS(=O)(=O)c2cnc(O)nc2O)c1
56 | 14.5 | Cc1ccccc1NNC(=O)c1ccc(NS(=O)(=O)c2cnc(O)nc2O)cc1
57 | > 20 | Cc1cccc(NNC(=O)c2cccc(NS(=O)(=O)c3cnc(O)nc3O)c2)c1
58 | 3.74 | O=C(NNC(=O)c1ccccc1Cl)c1cccc(NS(=O)(=O)c2cnc(O)nc2O)c1
59 | > 20 | O=C(NNc1ccc(F)cc1)c1cccc(NS(=O)(=O)c2cnc(O)nc2O)c1
60 | 14.2 | Cc1ccccc1NNC(=O)c1cccc(NS(=O)(=O)c2cnc(O)nc2O)c1

Test system: MDA-MB-231
Assay: Antiproliferative activity against human MDA-MB-231 cells after 24 hrs by MTT assay
Format: functional, cell-based
Conditions: MDA-MB-231, 24 h

Row | IC50 [µM] | Compound
61 | > 20 | O=C(NNC(=O)c1ccccc1NS(=O)(=O)c1cnc(O)nc1O)c1ccc(F)cc1
62 | > 20 | O=C(NNc1ccccc1F)c1ccccc1NS(=O)(=O)c1cnc(O)nc1O
63 | > 20 | O=C(NNc1ccc(F)cc1)c1ccc(NS(=O)(=O)c2cnc(O)nc2O)cc1
64 | 18.1 | Cc1ccccc1C(=O)NNC(=O)c1cccc(NS(=O)(=O)c2cnc(O)nc2O)c1
65 | > 20 | Cc1ccccc1NNC(=O)c1ccccc1NS(=O)(=O)c1cnc(O)nc1O
66 | 3.18 | O=C(NNC(=O)c1cccc(NS(=O)(=O)c2cnc(O)nc2O)c1)c1cccc(Cl)c1
67 | 7.76 | O=C(NNc1cccc(Cl)c1)c1cccc(NS(=O)(=O)c2cnc(O)nc2O)c1
68 | > 20 | O=C(NNC(=O)c1ccccc1F)c1ccc(NS(=O)(=O)c2cnc(O)nc2O)cc1
69 | > 20 | O=C(NNC(=O)c1ccccc1NS(=O)(=O)c1cnc(O)nc1O)c1ccccc1F
70 | 8.31 | O=C(NNC(=O)c1ccccc1NS(=O)(=O)c1cnc(O)nc1O)c1ccccc1Cl
71 | 11.9 | CCCCOc1ccc(C(=O)NNC(=O)c2ccc(NS(=O)(=O)c3cnc(O)nc3O)cc2)cc1
72 | 17.4 | O=C(NNc1cccc(Cl)c1)c1ccc(NS(=O)(=O)c2cnc(O)nc2O)cc1
73 | > 20 | Cc1ccc(C(=O)NNC(=O)c2cccc(NS(=O)(=O)c3cnc(O)nc3O)c2)cc1
74 | 5.57 | Cc1ccccc1C(=O)NNC(=O)c1ccccc1NS(=O)(=O)c1cnc(O)nc1O
75 | 2.09 | O=C(NNc1ccccc1Cl)c1cccc(NS(=O)(=O)c2cnc(O)nc2O)c1
76 | > 20 | Cc1ccccc1NNC(=O)c1ccc(NS(=O)(=O)c2cnc(O)nc2O)cc1
77 | > 20 | Cc1cccc(NNC(=O)c2cccc(NS(=O)(=O)c3cnc(O)nc3O)c2)c1
78 | 2.36 | O=C(NNC(=O)c1ccccc1Cl)c1cccc(NS(=O)(=O)c2cnc(O)nc2O)c1
79 | > 20 | O=C(NNc1ccc(F)cc1)c1cccc(NS(=O)(=O)c2cnc(O)nc2O)c1
80 | > 20 | Cc1ccccc1NNC(=O)c1cccc(NS(=O)(=O)c2cnc(O)nc2O)c1

Reference: ChEMBL document CHEMBL4152276, “Design, synthesis and biological evaluation of N-phenyl-(2,4-dihydroxypyrimidine-5-sulfonamido)benzoyl hydrazide derivatives as thymidylate synthase (TS) inhibitors and as potential antitumor drugs” (Eur J Med Chem, 2018)
